Results from PMC9176665, “Legumain/pH dual-responsive lytic peptide–paclitaxel conjugate for synergistic cancer therapy” (Drug Delivery, 2022).
Values after ≈ are worked out from the molar mass of the structure shown.

Key:
Assay type in all cases: cell-based
MCF-7 cells = assay: MTT cytotoxicity assay; settings: Homo sapiens, MCF7, 72 h, PTX concentration, n = 5
Experimental: (§1) MCF-7 cells, HCT116 cells, and 4T1 cells were seeded in 96-well plates at a density of 3 × 10^3/well. After 12 h, cancer cells were incubated with free PTX and PPP micelles with a PTX concentration from 0.001 µg/mL to 10 µg/mL in 200 µL culture mediums for 72 h. One hundred microliters of culture medium containing 10 µL MTT (5 mg/mL) was added to each well for another 4 h in the dark. The absorbance was measured at 570 nm by a microplate reader (Flexstation 3, Molecular Devices LLC, Sunnyvale, CA). Comparing treated wells with controlled wells, the cell viability was analyzed as mean ± SD (n = 5). In order to confirm the enzyme responsiveness of AAN between the mPEG and PTP-7, MTT assay was used to indirectly observe the cytotoxicity of PTP-7 cleaved by legumain. One microgram of recombinant mouse legumain (Abcam, Cambridge, UK) was activated in a buffer solution (pH 4.5) which contains 50 mM critic acid, 1 mM DTT, and 1 mM EDTA (Zhou et al., [2017]). Then, PP was dissolved in the legumain solution and incubated at 37 °C for 12 h. Next, culture medium containing 0.1–100 µg/mL of free PTP-7 or legumain treated mPEG-PTP-7 was added to cancer cells. After incubation for 24 h, the cell viability was calculated as above.
(§2) The cell lines were purchased from China Center for Type Culture Collection (Wuhan, China). MCF-7 and HCT116 cells were cultivated in DMEM and 1640 with 10% FBS and 1% PS. 4T1 cells were cultivated in 1640 containing 1% glutaMAX^TM-1, 1% MEM NEAA, 1% sodium pyruvate, 10% FBS and 1% PS. All cell lines were incubated in incubator at 37℃ and 5% CO2. All qualified mice were purchased from Hangzhou Medical College and fostered in laboratory animals and all animal experiments followed the ethical requirements set by the ethics committee of Zhejiang University of Technology (20210511034).

4T1 cells = assay: MTT cytotoxicity assay; settings: Mus musculus, 72 h, PTX concentration, n = 5
Experimental: as §1, §2

HCT116 cells = assay: MTT cytotoxicity assay; settings: Homo sapiens, HCT-116, 72 h, PTX concentration, n = 5
Experimental: as §1, §2

MCF-7 tumor spheroid = assay: Inhibition of tumor spheroid growth; settings: MCF-7 spheroids, equivalent 0.1 µg/mL PTX, 9th day
Experimental: (§3) MCF-7 cells and HCT116 cells were dispersed in culture medium containing 10% methylcellulose (0.24%, w/v) at a density of around 1 × 10^5 cells/mL. Twenty microliters of the above medium was equably dropped on the lid of a […] cell culture dish and incubated at 37 °C for 24 h. When the tumor spheroids were formed, they were removed to 96-well plates which were pre-coated with agarose. After incubation for 72 h, MCF-7 tumor spheroid was treated with PPP and free PTX at equivalent 0.1 µg/mL PTX and HCT116 tumor spheroid was treated with PPP and free PTX at equivalent 0.05 µg/mL PTX. […] Measured with maximum diameter (dmax) and minimum diameter (dmin), the tumor spheroid volume was calculated by the following equation: V=[…], and the negative control tumor spheroids grew up in culture medium.

HCT116 tumor spheroid = assay: Inhibition of tumor spheroid growth; settings: equivalent 0.05 µg/mL PTX, 9th day
Experimental: as §3

With `CC(=O)O[C@H]1C(=O)[C@@]2(C)[C@H]([C@H](OC(=O)c3ccccc3)[C@]3(O)C[C@H](OC(=O)[C@H](O)[C@@H](NC(=O)c4ccccc4)c4ccccc4)C(C)=C1C3(C)C)[C@]1(OC(C)=O)CO[C@@H]1C[C@@H]2O` [PTX, Paclitaxel] the IC50 (MCF-7 cells) was 0.028 µg/mL (≈ 0.0328 µM), the IC50 (4T1 cells) was 0.01 µg/mL (≈ 0.0117 µM) and the IC50 (HCT116 cells) was 0.006 µg/mL (≈ 0.00703 µM). The “inhibition of spheroids (volume)” value (MCF-7 tumor spheroid) was 47.88% and the “inhibition of spheroids (volume)” value (HCT116 tumor spheroid) was 20.51%.
